Test results as given in EP0369874A2, “Cardioprotective tocopherol analogs” (MERRELL DOW PHARMACEUTICALS INC., priority 1988, dated 1990).
Where “and” joins values, the source holds several entries; their conditions need not be identical. Equal entries are not always repeated.

How the values were obtained:
[1] = Free-radical scavenging: inhibition of autoxidation of 1-epinephrine (Misra and Fridovich); type: biochemical; details: 1-epinephrine 1 x 10⁻⁴M, EDTA 1 x 10⁻⁴M, 30°C, absorbance at 480; read-out: 50% inhibition of the autoxidation rate (ID₅₀)
Experimental: 2-(3,4-dihydro-6-hydroxy-2,5,7,8-tetramethyl-2H-1-benzopyran-2-yl)ethyl-N,N,N-trimethylammonium bromide, described in Example 1, was evaluated for its ability to reduce superoxide radicals in an assay described by H.P. Misra and J. Fridovich, 1972, J. Biol. Chem. 247, 3170-5. In this assay, the rate of autoxidation of 1-epinephrine (1 x 10⁻⁴M) in the presence of EDTA (1 x 10⁻⁴M) at 30°C is followed spectrophotometrically following the increase of absorbance at 480 mn. […] For comparison, 3,4-dihydro-6-hydroxy-2,5,7,8-tetramethyl-2H-1-benzopyran-2-carboxylic acid (CAS 53188-07-1) gave ID₅₀= 105 ± 8 µM and d,1-penicillamine (CAS 52-67-5)ID₅₀ = 73 µM in parallel experiments. Misra and Fridovich report that bovine superoxide dismutase gave 50% inhibition at […].

[2] = tested on: ligation-induced infarcted and reperfused rats; test: Cardioprotective effects: coronary ligation 60 min, reperfusion 30 min, infarcted area / area at risk; type: in vivo
Experimental: 2-(3,4-Dihydro-2,5,7,8-tetramethyl-6-methylcarbonyloxy-2H-1-benzopyran-2-yl)ethyl-N,N,N-trimethylammonium bromide was evaluated in ligation-induced infarcted and reperfused rats as follows. One of two groups of rats was infused intravenously with a solution of test compound in saline at a rate of 2.3 ml/h (10 mg/kg/h). The control group was infused with saline at the same rate. After 10 min of drug infusion, coronary arteries were ligated surgically for 60 min, ligation was loosened to allow reperfusion for 30 min. The ligation was […] dye (Evans Blue) was injected. The animals were sacrificed and the heart ventricles were removed and weighed. The unstained tissue was dissected and weighed; this represents the "area at risk". i.e. the area that was deprived of blood supply by ligation. To determine the infarcted area, the tissue was incubated with 2,3,5-triphenyltetrazolium chloride. Infarcted tissue became light colored and could be dissected and weighed. Thus, for each rat that survived the ligation a measurement of "area at risk" and of "infarcted area" was obtained and the ratio was calculated as given in Tables II and III. TABLE II 3,4-Dihydro-2-(2-dimethylaminoethyl)-2,5,7,8-tetramethyl-2H-1-benzopyran-6-yl acetate hydrochloride was evaluated in ligation-induced infarcted and reperfused rats as follows. One of two groups of rats was infused intravenously with a solution of test compound in saline at a rate of 2.3 ml/h (10 mg/kg/h). The control group was infused with saline at the same rate. After 10 min of drug, coronary arteries were ligated surgically for 60 min, ligation was loosened to allow reperfusion for 30 min. The ligation was […] dye (Evans Blue) was injected. The animals were […] heart […] removed and weighed. The unstained tissue was dissected and weighed; this represents the "area at risk", i.e. the area that was deprived of blood supply by ligation. To determine the infarcted area, the tissue was incubated with 2,3,5-triphenyltetrazolium chloride. Infarcted tissue became light colored and was dissected and weighed. Thus, for each rat that survived the ligation a measurement of "area at risk" and of "infarcted area" was obtained and the ratio was calculated as shown in the following tables.

[3] = Affinity for cardiac tissue: radioactivity in heart and blood after intravenous 14C-labelled compound; type: in vivo; details: rats, 0.91 mg base/kg intravenous
Experimental: Following the procedure described in Example11, but using ¹⁴C-methyl p-toluenesulfonate in place of "cold material", ¹⁴C-labelled 2-(3,4-dihydro-2,5,7,8-tetramethyl-6-methylcarbonyloxy-2H-1benzopyranan-2-yl)ethyl-N,N,N-tri-¹⁴C-methylammonium p-toluenesulfonate was synthesized. The preparation was diluted with "cold material" to 11.74 µCi/mg base.
24 rats were given 0.91 mg base/kg by inravenous route (by canula into the jugular vein). The animals were sacrificed in groups of 3 at the time periods indicated in Table I. Immediately before sacrifice a 0.5 ml blood sample was taken from an indwelling catheter in the carotid artery. The hearts were removed, blotted and weighed. The samples of tissue and blood were solubilized with Luma Solve (a quarternary ammonium hydroxide preparation) and radioactivity was determined in a scintillation counter.

[4] = treated group, intravenous infusion 10 mg/kg/h, individual rats, listed as 3,4-Dihydro-2-(2-dimethylaminoethyl)-2,5,7,8-tetramethyl-2H-1-benzopyran-6-yl ac, acetate hydrochloride

Work on `Cc1c(C)c2c(c(C)c1O)CCC(C)(C(=O)O)O2` (stereo not shown) [3,4-dihydro-6-hydroxy-2,5,7,8-tetramethyl-2H-1-benzopyran-2-carboxylic acid] yielded an IC50 [1] of 105 ± 8 µM.
With `CC(=O)Oc1c(C)c(C)c2c(c1C)CCC(C)(CCN(C)C)O2.Cl` (stereo not shown) [Example 4, 3,4-Dihydro-2-(2-dimethylaminoethyl)-2,5,7,8-tetramethyl-2H-benzopyran-6-yl acetate hydrochloride] the reduction of infarction ([2]; treated group (10 mg/kg/h) versus saline control group) was 48.2%, the “Ratio % (infarcted tissue / tissue at risk), average” value ([2]; treated group, intravenous infusion 10 mg/kg/h, group average) was 38.0% and the Infarcted tissue [2, 4] was 337 mg and 80 mg and 51 mg (2×) and 346 mg and 18 mg and 294 mg and 34 mg. The “Ratio % (infarcted tissue / tissue at risk)” value [2, 4] was 70.1% and 40.3% and 10% and 83.2% and 4% and 71.6% and 17.5% and 7.0%.
`Cc1c(C)c2c(c(C)c1O)CCC(C)(CC[N+](C)(C)C)O2` (stereo not shown) [Example 10, 2-(3,4-Dihydro-6-hydroxy-2,5,7,8-tetramethyl-2H-1-benzo-pyran-2-yl)ethyl-N,N,N-trimethylammonium bromide] showed an IC50 [1] of 138 ± 14 µM.
For `CC(=O)Oc1c(C)c(C)c2c(c1C)CCC(C)(CC[N+](C)(C)C)O2.[Br-]` (stereo not shown) [Example 11, 2-(3,4-Dihydro-2,5,7,8-tetramethyl-6-methylcarbonyloxy-2H-1-benzopyran-2-yl)ethyl-N,N,N-trimethylammonium bromide], the Infarcted tissue ([2]; treated group, intravenous infusion 10 mg/kg/h, individual rats) was 23 mg and 27 mg and 39 mg and 33 mg.
For `CC(=O)Oc1c(C)c(C)c2c(c1C)CCC(C)(CC[N+](C)(C)C)O2.Cc1ccc(S(=O)(=O)[O-])cc1` (stereo not shown) [Example 18, 2-(3,4-Dihydro-2,5,7,8-tetramethyl-6-methylcarbonyloxy-2H-1-benzopyran-2-yl)ethyl-N,N,N-trimethylammonium p-toluenesulfonate], the Ratio heart/blood ([3]; 5 min after administration) was 3.05±1.46, the ng equiv/ml blood ([3]; 5 min after administration) was 0.434±0.351 ng equiv/ml and the Ratio heart/blood ([3]; 15 min after administration) was 6.90±8.34. It also gave a ng equiv/ml blood ([3]; 15 min after administration) of 0.590±0.295 ng equiv/ml, a Ratio heart/blood ([3]; 30 min after administration) of 17.33±5.42 and a ng equiv/ml blood ([3]; 30 min after administration) of 0.124±0.032 ng equiv/ml. The Ratio heart/blood ([3]; 1 hour after administration) was 20.09±2.54, the ng equiv/ml blood ([3]; 1 hour after administration) was 0.096±0.008 ng equiv/ml and the Ratio heart/blood ([3]; 2 hours after administration) was 21.90±3.56. The ng equiv/ml blood ([3]; 2 hours after administration) was 0.086±0.041 ng equiv/ml, the ng equiv/ml blood ([3]; 4 hours after administration) was 0.054±0.013 ng equiv/ml and the Ratio heart/blood ([3]; 4 hours after administration, listed as 2-(3,4-dihydro-2,5,7,8-tetramethyl-6-methylcarbonyloxy-2H-1benzopyranan-2-yl)eth, p-toluenesulfonate) was 27.15 and 27.15±4.30. The Ratio heart/blood ([3]; 6 hours after administration) was 18.62±2.77, the ng equiv/ml blood ([3]; 6 hours after administration) was 0.048±0.007 ng equiv/ml and the Ratio heart/blood ([3]; 8 hours after administration) was 15.12±2.69. The ng equiv/ml blood ([3]; 8 hours after administration) was 0.048±0.012 ng equiv/ml and the “concentration of drug in heart tissue” value ([3]; after 8 h) was 0.65 µg equiv/g.
Work on d,1-penicillamine yielded an IC50 [1] of 73 µM.
